Results as given in patent US9738634B2, “Heterocyclic amide compound and herbicide” (SYNGENTA PARTICIPATIONS AG, priority 2013, dated 2017).

Assays:
Type in all cases: in vivo
[1] = test system: birds-eye speedwell; assay: Test Example 3: weedkilling efficacy through soil treatment; p: birds-eye speedwell; details: treatment dosage 315 g/ha
Summary of the method: (§1)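 Crop and weed responses were judged three weeks after a uniform surface spray of the water-diluted emulsion at the given g/ha rate. Seeds sat beneath about 1.5 cm of sterilized diluvial soil, and boxes stood in a greenhouse at 25 to 30° C.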

[2] = test system: wild oat; assay: Test Example 3: weedkilling efficacy through soil treatment; G: wild oat; details: treatment dosage 315 g/ha
Summary of the method: as §1

[3] = test system: Indian mallow; assay: Test Example 4: weedkilling efficacy by foliar treatment; K: Indian mallow; details: treatment dosage 315 g/ha
Summary of the method: (§2)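 Seeds are spot-sown into sterilized diluvial soil and covered with about 1.5 cm of soil. After 14 days' greenhouse growth at 25 to 30° C, plants are sprayed on stems and leaves with diluted emulsion at the stated g/ha rate, then scored at 3 weeks.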

[4] = test system: wild oat; assay: Test Example 4: weedkilling efficacy by foliar treatment; G: wild oat; details: treatment dosage 315 g/ha
Summary of the method: as §2

[5] = test system: Italian ryegrass; assay: Test Example 3: weedkilling efficacy through soil treatment; I: Italian ryegrass; details: treatment dosage 315 g/ha
Summary of the method: as §1

[6] = test system: black-grass; assay: Test Example 4: weedkilling efficacy by foliar treatment; H: black-grass; details: treatment dosage 315 g/ha
Summary of the method: as §2

[7] = test system: chickweed; assay: Test Example 4: weedkilling efficacy by foliar treatment; N: chickweed; details: treatment dosage 315 g/ha
Summary of the method: as §2

[8] = test system: directly sown rice; assay: Test Example 3: soil treatment, effect on crop; b: directly sown rice; details: treatment dosage 315 g/ha
Summary of the method: as §1

[9] = test system: bulrush; assay: Test Example 1: weedkilling efficacy, preemergent weed treatment in the submerged state; B: bulrush; details: treatment dosage 252 g/ha
Summary of the method: (§3)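 Emulsion diluted with water to the specified per-hectare dosage is applied onto flood water (4 cm) over alluvial soil on the sowing day, with barnyard grass, bulrush and pondweed seeded and rice (2.5-leaf) transplanted; plants grow at 25–30 °C and are rated at 3 weeks.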

[10] = test system: birds-eye speedwell; assay: Test Example 4: weedkilling efficacy by foliar treatment; p: birds-eye speedwell; details: treatment dosage 315 g/ha
Summary of the method: as §2

[11] = test system: wheat; assay: Test Example 4: foliar treatment, effect on crop; e: wheat; details: treatment dosage 315 g/ha
Summary of the method: as §2

[12] = test system: black-grass; assay: Test Example 3: weedkilling efficacy through soil treatment; H: black-grass; details: treatment dosage 315 g/ha
Summary of the method: as §1

[13] = test system: crabgrass; assay: Test Example 4: weedkilling efficacy by foliar treatment; D: crabgrass; details: treatment dosage 315 g/ha
Summary of the method: as §2

[14] = test system: barnyard grass; assay: Test Example 2: weedkilling efficacy, growth period weed treatment in the submerged state; A: barnyard grass; details: treatment dosage 252 g/ha
Summary of the method: (§4)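 First, alluvial soil in pots is flooded to 4 cm and mixed seed is sown. Next, plants grow in a greenhouse at 25 to 30° C until the 1-2 leaf stage. Then diluted emulsion is applied onto the water surface at the given g/ha rate, and injury is assessed after 3 weeks.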

[15] = test system: barnyard grass; assay: Test Example 1: weedkilling efficacy, preemergent weed treatment in the submerged state; A: barnyard grass; details: treatment dosage 252 g/ha
Summary of the method: as §3

[16] = test system: oval-leafed pondweed; assay: Test Example 1: weedkilling efficacy, preemergent weed treatment in the submerged state; C: oval-leafed pondweed; details: treatment dosage 252 g/ha
Summary of the method: as §3

[17] = test system: fig-leafed goosefoot; assay: Test Example 4: weedkilling efficacy by foliar treatment; M: fig-leafed goosefoot; details: treatment dosage 315 g/ha
Summary of the method: as §2

[18] = test system: wheat; assay: Test Example 3: soil treatment, effect on crop; e: wheat; details: treatment dosage 315 g/ha
Summary of the method: as §1

[19] = test system: oval-leafed pondweed; assay: Test Example 2: weedkilling efficacy, growth period weed treatment in the submerged state; C: oval-leafed pondweed; details: treatment dosage 252 g/ha
Summary of the method: as §4

[20] = test system: soybean; assay: Test Example 3: soil treatment, effect on crop; d: soybean; details: treatment dosage 315 g/ha
Summary of the method: as §1

[21] = test system: green foxtail; assay: Test Example 4: weedkilling efficacy by foliar treatment; E: green foxtail; details: treatment dosage 315 g/ha
Summary of the method: as §2

[22] = test system: corn; assay: Test Example 4: foliar treatment, effect on crop; c: corn; details: treatment dosage 315 g/ha
Summary of the method: as §2

[23] = test system: chickweed; assay: Test Example 3: weedkilling efficacy through soil treatment; N: chickweed; details: treatment dosage 315 g/ha
Summary of the method: as §1

[24] = test system: Indian mallow; assay: Test Example 3: weedkilling efficacy through soil treatment; K: Indian mallow; details: treatment dosage 315 g/ha
Summary of the method: as §1

[25] = test system: redroot pigweed; assay: Test Example 3: weedkilling efficacy through soil treatment; L: redroot pigweed; details: treatment dosage 315 g/ha
Summary of the method: as §1

[26] = test system: fig-leafed goosefoot; assay: Test Example 3: weedkilling efficacy through soil treatment; M: fig-leafed goosefoot; details: treatment dosage 315 g/ha
Summary of the method: as §1

[27] = test system: beet; assay: Test Example 3: soil treatment, effect on crop; f: beet; details: treatment dosage 315 g/ha
Summary of the method: as §1

[28] = test system: green foxtail; assay: Test Example 3: weedkilling efficacy through soil treatment; E: green foxtail; details: treatment dosage 315 g/ha
Summary of the method: as §1

[29] = test system: Italian ryegrass; assay: Test Example 4: weedkilling efficacy by foliar treatment; I: Italian ryegrass; details: treatment dosage 315 g/ha
Summary of the method: as §2

[30] = test system: redroot pigweed; assay: Test Example 4: weedkilling efficacy by foliar treatment; L: redroot pigweed; details: treatment dosage 315 g/ha
Summary of the method: as §2

[31] = test system: bulrush; assay: Test Example 2: weedkilling efficacy, growth period weed treatment in the submerged state; B: bulrush; details: treatment dosage 252 g/ha
Summary of the method: as §4

[32] = test system: transplanted rice; assay: Test Example 1: preemergent weed treatment in the submerged state, effect on crop; a: transplanted rice; details: treatment dosage 252 g/ha
Summary of the method: as §3

[33] = test system: directly sown rice; assay: Test Example 4: foliar treatment, effect on crop; b: directly sown rice; details: treatment dosage 315 g/ha
Summary of the method: as §2

[34] = test system: crabgrass; assay: Test Example 3: weedkilling efficacy through soil treatment; D: crabgrass; details: treatment dosage 315 g/ha
Summary of the method: as §1

[35] = test system: soybean; assay: Test Example 4: foliar treatment, effect on crop; d: soybean; details: treatment dosage 315 g/ha
Summary of the method: as §2

[36] = test system: catchweed; assay: Test Example 4: weedkilling efficacy by foliar treatment; O: catchweed; details: treatment dosage 315 g/ha
Summary of the method: as §2

[37] = test system: beet; assay: Test Example 4: foliar treatment, effect on crop; f: beet; details: treatment dosage 315 g/ha
Summary of the method: as §2

[38] = test system: corn; assay: Test Example 3: soil treatment, effect on crop; c: corn; details: treatment dosage 315 g/ha
Summary of the method: as §1

Row | SMILES | P (birds-eye speedwell) weedkilling efficacy grade [1] | G (wild oat) weedkilling efficacy grade [2] | K (Indian mallow) weedkilling efficacy grade [3] | G (wild oat) weedkilling efficacy grade [4] | I (Italian ryegrass) weedkilling efficacy grade [5] | H (black-grass) weedkilling efficacy grade [6] | N (chickweed) weedkilling efficacy grade [7] | b (directly sown rice) effect on crop grade [8] | B (bulrush) weedkilling efficacy grade [9] | P (birds-eye speedwell) weedkilling efficacy grade [10] | e (wheat) effect on crop grade [11] | H (black-grass) weedkilling efficacy grade [12] | D (crabgrass) weedkilling efficacy grade [13] | A (barnyard grass) weedkilling efficacy grade [14] | A (barnyard grass) weedkilling efficacy grade [15] | C (oval-leafed pondweed) weedkilling efficacy grade [16] | M (fig-leafed goosefoot) weedkilling efficacy grade [17] | e (wheat) effect on crop grade [18] | d (soybean) effect on crop grade [20] | E (green foxtail) weedkilling efficacy grade [21] | other results
1 | CC1=C(c2ccccc2)C(=O)N(C(C)(C)C(=O)Nc2nc(Cl)ns2)CO1 [B-1-12] | 4 (weed kill ratio 70% or more, less than 90%) | 3 (weed kill ratio 40% or more, less than 70%) | 3 (weed kill ratio 40% or more, less than 70%) | 3 (weed kill ratio 40% or more, less than 70%) | 2 (weed kill ratio 20% or more, less than 40%) | 4 (weed kill ratio 70% or more, less than 90%) | 4 (weed kill ratio 70% or more, less than 90%) | 5 (weed kill ratio 90% or more, (practically complete withering)) | 5 (weed kill ratio 90% or more, (practically complete withering)) | 3 (weed kill ratio 40% or more, less than 70%) | 0 (weed kill ratio 5% or less (practically no effect)) | 4 (weed kill ratio 70% or more, less than 90%) | 5 (weed kill ratio 90% or more, (practically complete withering)) | 5 (weed kill ratio 90% or more, (practically complete withering)) | 5 (weed kill ratio 90% or more, (practically complete withering)) | 5 (weed kill ratio 90% or more, (practically complete withering)) | 4 (weed kill ratio 70% or more, less than 90%) | 0 (weed kill ratio 5% or less (practically no effect)) | 0 (weed kill ratio 5% or less (practically no effect)) | 5 (weed kill ratio 90% or more, (practically complete withering)) | C (oval-leafed pondweed) weedkilling efficacy grade [19]: 5 (weed kill ratio 90% or more, (practically complete withering)); c (corn) effect on crop grade [22]: 5 (weed kill ratio 90% or more, (practically complete withering)); N (chickweed) weedkilling efficacy grade [23]: 4 (weed kill ratio 70% or more, less than 90%); K (Indian mallow) weedkilling efficacy grade [24]: 4 (weed kill ratio 70% or more, less than 90%); L (redroot pigweed) weedkilling efficacy grade [25]: 4 (weed kill ratio 70% or more, less than 90%); M (fig-leafed goosefoot) weedkilling efficacy grade [26]: 4 (weed kill ratio 70% or more, less than 90%); f (beet) effect on crop grade [27]: 5 (weed kill ratio 90% or more, (practically complete withering)); E (green foxtail) weedkilling efficacy grade [28]: 5 (weed kill ratio 90% or more, (practically complete withering)); I (Italian ryegrass) weedkilling efficacy grade [29]: 1 (weed kill ratio 5% or more, less than 20%); L (redroot pigweed) weedkilling efficacy grade [30]: 0 (weed kill ratio 5% or less (practically no effect)); B (bulrush) weedkilling efficacy grade [31]: 5 (weed kill ratio 90% or more, (practically complete withering)); a (transplanted rice) effect on crop grade [32]: 0 (weed kill ratio 5% or less (practically no effect)); b (directly sown rice) effect on crop grade [33]: 3 (weed kill ratio 40% or more, less than 70%); D (crabgrass) weedkilling efficacy grade [34]: 5 (weed kill ratio 90% or more, (practically complete withering)); d (soybean) effect on crop grade [35]: 0 (weed kill ratio 5% or less (practically no effect)); O (catchweed) weedkilling efficacy grade [36]: 3 (weed kill ratio 40% or more, less than 70%); f (beet) effect on crop grade [37]: 4 (weed kill ratio 70% or more, less than 90%); c (corn) effect on crop grade [38]: 5 (weed kill ratio 90% or more, (practically complete withering))
2 | CC1=C(c2ccccc2)C(=O)N(C(C)(C)C(=O)Nc2cc(Cl)nc(Cl)c2)CO1 [B-4-05] | 5 (weed kill ratio 90% or more, (practically complete withering)) | 5 (weed kill ratio 90% or more, (practically complete withering)) | 3 (weed kill ratio 40% or more, less than 70%) | 4 (weed kill ratio 70% or more, less than 90%) | 5 (weed kill ratio 90% or more, (practically complete withering)) | 4 (weed kill ratio 70% or more, less than 90%) | 2 (weed kill ratio 20% or more, less than 40%) | 5 (weed kill ratio 90% or more, (practically complete withering)) | 5 (weed kill ratio 90% or more, (practically complete withering)) | 4 (weed kill ratio 70% or more, less than 90%) | 0 (weed kill ratio 5% or less (practically no effect)) | 5 (weed kill ratio 90% or more, (practically complete withering)) | 5 (weed kill ratio 90% or more, (practically complete withering)) | 4 (weed kill ratio 70% or more, less than 90%) | 5 (weed kill ratio 90% or more, (practically complete withering)) | 5 (weed kill ratio 90% or more, (practically complete withering)) | 2 (weed kill ratio 20% or more, less than 40%) | 0 (weed kill ratio 5% or less (practically no effect)) | 0 (weed kill ratio 5% or less (practically no effect)) | 5 (weed kill ratio 90% or more, (practically complete withering)) | c (corn) effect on crop grade [22]: 3 (weed kill ratio 40% or more, less than 70%); N (chickweed) weedkilling efficacy grade [23]: 3 (weed kill ratio 40% or more, less than 70%); K (Indian mallow) weedkilling efficacy grade [24]: 3 (weed kill ratio 40% or more, less than 70%); L (redroot pigweed) weedkilling efficacy grade [25]: 4 (weed kill ratio 70% or more, less than 90%); M (fig-leafed goosefoot) weedkilling efficacy grade [26]: 4 (weed kill ratio 70% or more, less than 90%); E (green foxtail) weedkilling efficacy grade [28]: 5 (weed kill ratio 90% or more, (practically complete withering)); I (Italian ryegrass) weedkilling efficacy grade [29]: 5 (weed kill ratio 90% or more, (practically complete withering)); L (redroot pigweed) weedkilling efficacy grade [30]: 3 (weed kill ratio 40% or more, less than 70%); B (bulrush) weedkilling efficacy grade [31]: 5 (weed kill ratio 90% or more, (practically complete withering)); a (transplanted rice) effect on crop grade [32]: 0 (weed kill ratio 5% or less (practically no effect)); b (directly sown rice) effect on crop grade [33]: 5 (weed kill ratio 90% or more, (practically complete withering)); D (crabgrass) weedkilling efficacy grade [34]: 5 (weed kill ratio 90% or more, (practically complete withering)); d (soybean) effect on crop grade [35]: 3 (weed kill ratio 40% or more, less than 70%); O (catchweed) weedkilling efficacy grade [36]: 1 (weed kill ratio 5% or more, less than 20%); f (beet) effect on crop grade [37]: 0 (weed kill ratio 5% or less (practically no effect)); c (corn) effect on crop grade [38]: 0 (weed kill ratio 5% or less (practically no effect))
